# Values of other authors, collected in PubChem BioAssay AID1259409 (Chemical Carcinogenesis Research Information System (CCRIS), 2018).
# Test system: rodent chemically induced tumor inhibition, incidence and multiplicity
# Assay: CCRIS tumor inhibitor studies
# Conditions: Species: MOUSE
# Description: The CCRIS database contains chemical records with carcinogenicity, mutagenicity, tumor promotion, and tumor inhibition test results. It was developed by the National Cancer Institute (NCI). Data are derived from studies cited in primary journals, current awareness tools, NCI reports, and other sources. Test results have been reviewed by experts in carcinogenesis and mutagenesis.
# CCRIS provides historical information from the years 1985 - 2011. It is no longer updated.
# This is an archive assay for CCRIS tumor inhibitor studies.
compound,measurement,setting,value
S=C=NCCc1ccccc1,"tumour outcome (control, treated, inhibition, significance)","Carcinogen: 4(METHYLNITROSAMINO)1-(3-PYRIDYL)-1-BUTANONE, 64091-91-4, Dose [Inhibitor]: 0, 5 UMOL IN 0.1 ML CORN OIL WITH 10% DMSO 2 HR PRIOR TO CARCINOGEN DOSE (STUDY DURATION: 16 WK), Route [Inhibitor]: GAVAGE, Strain/Sex: STRAIN-A/FEMALE, Target Tissue: Type of Lesion: LUNG: ADENOMA, Dose [Carcinogen]: 10 UMOL IN 0.1 ML SALINE ONCE, Promoter: NONE USED","100%, 100%, 0%, not significant"
same,"tumour outcome (control, treated, inhibition, significance)","Carcinogen: 4-(METHYLNITROSAMINO)-1-(3-PYRIDYL)-1-BUTANONE (NNK) [64091-91-4], Dose [Inhibitor]: 1.5 UM/G DIET, BEGINNING 13 WKS AFTER CARCINOGEN/PROMOTER TREATMENT (STUDY DURATION: 42 WK), Route [Inhibitor]: DIET, Strain/Sex: A/J/FEMALE, Target Tissue: Type of Lesion: LUNG: ADENOCARCINOMA, Dose [Carcinogen]: 3 µM WEEKLY FOR 8 DOSES, Promoter: BENZO[A]PYRENE [50-32-8]","42%, 35%, 17%, not significant"
same,"tumour outcome (control, treated, inhibition, significance)","Carcinogen: 4-(METHYLNITROSAMINO)-1-(3-PYRIDYL)-1-BUTANONE (NNK) [64091-91-4], Dose [Inhibitor]: 1.5 UM/G DIET, BEGINNING 13 WKS AFTER CARCINOGEN/PROMOTER TREATMENT (STUDY DURATION: 42 WK), Route [Inhibitor]: DIET, Strain/Sex: A/J/FEMALE, Target Tissue: Type of Lesion: LUNG: ADENOMA, Dose [Carcinogen]: 3 µM WEEKLY FOR 8 DOSES, Promoter: BENZO[A]PYRENE [50-32-8]","100%, 95%, 5%, not significant"
same,"tumour outcome (control, treated, inhibition, significance)","Carcinogen: 4-(METHYLNITROSAMINO)-1-(3-PYRIDYL)-1-BUTANONE (NNK) [64091-91-4], Dose [Inhibitor]: 3 UM/G DIET, BEGINNING 13 WKS AFTER CARCINOGEN/PROMOTER TREATMENT (STUDY DURATION: 42 WK), Route [Inhibitor]: DIET, Strain/Sex: A/J/FEMALE, Target Tissue: Type of Lesion: LUNG: ADENOCARCINOMA, Dose [Carcinogen]: 3 µM WEEKLY FOR 8 DOSES, Promoter: BENZO[A]PYRENE [50-32-8]","42%, 19%, 55%, p<0.05"
same,"tumour outcome (control, treated, inhibition, significance)","Carcinogen: 4-(METHYLNITROSAMINO)-1-(3-PYRIDYL)-1-BUTANONE [64091-91-4] (NNK), Dose [Inhibitor]: 3 UM/G DIET, BEGINNING 13 WKS AFTER CARCINOGEN/PROMOTER TREATMENT (STUDY DURATION: 42 WK), Route [Inhibitor]: DIET, Strain/Sex: A/J/FEMALE, Target Tissue: Type of Lesion: LUNG: ADENOMA, Dose [Carcinogen]: 3 µM WEEKLY FOR 8 DOSES, Promoter: BENZO[A]PYRENE [50-32-8]","100%, 100%, 0%, not significant"
same,"tumour outcome (control, treated, inhibition, significance)","Carcinogen: 4-(METHYLNITROSAMINO)-1-(3-PYRIDYL)-1-BUTANONE [64091-91-4], BENZO[A]PYRENE [50-32-8], Dose [Inhibitor]: 0.3 UMOL/G IN DIET FOR 10 WK BEGINNING 1 WK PRIOR TO FIRST CARCINOGEN DOSE (STUDY DURATION: 28 WK), Route [Inhibitor]: ORAL, Strain/Sex: A/J/FEMALE, Target Tissue: Type of Lesion: LUNG: TUMOR, Dose [Carcinogen]: 3 UMOL BAP + 3 UMOL NNK IN 0.1 ML COTTONSEED OIL 1X/WK FOR 8 WK (STUDY DURATION: 28 WK), Promoter: NONE","100%, 100%, 0%, not calculated"
same,"tumour outcome (control, treated, inhibition, significance)","Carcinogen: 4-(METHYLNITROSAMINO)-1-(3-PYRIDYL)-1-BUTANONE [64091-91-4], BENZO[A]PYRENE [50-32-8], Dose [Inhibitor]: 1 UMOL/G IN DIET FOR 10 WK BEGINNING 1 WK PRIOR TO FIRST CARCINOGEN DOSE (STUDY DURATION: 28 WK), Route [Inhibitor]: ORAL, Strain/Sex: A/J/FEMALE, Target Tissue: Type of Lesion: LUNG: TUMOR, Dose [Carcinogen]: 3 UMOL BAP + 3 UMOL NNK IN 0.1 ML COTTONSEED OIL 1X/WK FOR 8 WK (STUDY DURATION: 28 WK), Promoter: NONE","100%, 100%, 0%, not calculated"
same,"tumour outcome (control, treated, inhibition, significance)","Carcinogen: 4-(METHYLNITROSAMINO)-1-(3-PYRIDYL)-1-BUTANONE [64091-91-4], BENZO[A]PYRENE [50-32-8], Dose [Inhibitor]: 3 UMOL/G IN DIET FOR 10 WK BEGINNING 1 WK PRIOR TO FIRST CARCINOGEN DOSE (STUDY DURATION: 28 WK), Route [Inhibitor]: ORAL, Strain/Sex: A/J/FEMALE, Target Tissue: Type of Lesion: LUNG: TUMOR, Dose [Carcinogen]: 3 UMOL BAP + 3 UMOL NNK IN 0.1 ML COTTONSEED OIL 1X/WK FOR 8 WK (STUDY DURATION: 28 WK), Promoter: NONE","100%, 100%, 0%, not calculated"
same,"tumour outcome (control, treated, inhibition, significance)","Carcinogen: 4-(METHYLNITROSAMINO)-1-(3-PYRIDYL)-1-BUTANONE [64091-91-4], BENZO[A]PYRENE [50-32-8], Dose [Inhibitor]: 6 UMOL IN 0.1 ML COTTONSEED OIL 1X/WK FOR 8 WK 2 PRIOR TO EACH CARCINOGEN DOSE (STUDY DURATION: 16 WK), Route [Inhibitor]: GAVAGE, Strain/Sex: A/J/FEMALE, Target Tissue: Type of Lesion: LUNG: TUMOR, Dose [Carcinogen]: 3 UMOL BAP + 3 UMOL NNK IN 0.1 ML COTTONSEED OIL 1X/WK FOR 8 WK (STUDY DURATION: 16 WK), Promoter: NONE","100%, 100%, 0%, not calculated"
same,"tumour outcome (control, treated, inhibition, significance)","Carcinogen: 4-(METHYLNITROSAMINO)-1-(3-PYRIDYL)-1-BUTANONE [64091-91-4], Dose [Inhibitor]: 0.3 UMOL/G IN DIET FOR 10 WK BEGINNING 1 WK PRIOR TO FIRST CARCINOGEN DOSE (STUDY DURATION: 28 WK), Route [Inhibitor]: ORAL, Strain/Sex: A/J/FEMALE, Target Tissue: Type of Lesion: LUNG: TUMOR, Dose [Carcinogen]: 3 UMOL IN 0.1 ML COTTONSEED OIL 1X/WK FOR 8 WK (STUDY DURATION: 28 WK), Promoter: NONE","100%, 100%, 0%, not calculated"
same,"tumour outcome (control, treated, inhibition, significance)","Carcinogen: 4-(METHYLNITROSAMINO)-1-(3-PYRIDYL)-1-BUTANONE [64091-91-4], Dose [Inhibitor]: 1 UMOL/G IN DIET FOR 10 WK BEGINNING 1 WK PRIOR TO FIRST CARCINOGEN DOSE (STUDY DURATION: 28 WK), Route [Inhibitor]: ORAL, Strain/Sex: A/J/FEMALE, Target Tissue: Type of Lesion: LUNG: TUMOR, Dose [Carcinogen]: 3 UMOL IN 0.1 ML COTTONSEED OIL 1X/WK FOR 8 WK (STUDY DURATION: 28 WK), Promoter: NONE","100%, 100%, 0%, not calculated"
same,"tumour outcome (control, treated, inhibition, significance)","Carcinogen: 4-(METHYLNITROSAMINO)-1-(3-PYRIDYL)-1-BUTANONE [64091-91-4], Dose [Inhibitor]: 3 UMOL/G IN DIET FOR 10 WK BEGINNING 1 WK PRIOR TO FIRST CARCINOGEN DOSE (STUDY DURATION: 28 WK), Route [Inhibitor]: ORAL, Strain/Sex: A/J/FEMALE, Target Tissue: Type of Lesion: LUNG: TUMOR, Dose [Carcinogen]: 3 UMOL IN 0.1 ML COTTONSEED OIL 1X/WK FOR 8 WK (STUDY DURATION: 28 WK), Promoter: NONE","100%, 100%, 0%, not calculated"
same,"tumour outcome (control, treated, inhibition, significance)","Carcinogen: 4-(METHYLNITROSAMINO)-1-(3-PYRIDYL)-1-BUTANONE, 64091-91-4, Dose [Inhibitor]: 0, 0.2 UMOL 1/D FOR 4 D ADMINISTERED PRIOR TO CARCINOGEN TREATMENT (STUDY DURATION: 116 D), Route [Inhibitor]: GAVAGE, Strain/Sex: STRAIN A, Target Tissue: Type of Lesion: LUNG ADENOMA, Dose [Carcinogen]: 10 UMOL ONCE 2 HR AFTER FINAL DOSE OF INHIBITOR, Promoter: NONE USED","100%, 100%, 0%, not significant"
same,"tumour outcome (control, treated, inhibition, significance)","Carcinogen: 4-(METHYLNITROSAMINO)-1-(3-PYRIDYL)-1-BUTANONE, 64091-91-4, Dose [Inhibitor]: 0, 0.008% IN DIET FOR 17 WK BEGINNING 1 WK PRIOR TO CARCINOGEN DOSE (STUDY DURATION: 17 WK), Route [Inhibitor]: ORAL, Strain/Sex: STRAIN-A/FEMALE, Target Tissue: Type of Lesion: LUNG: ADENOMA, Dose [Carcinogen]: 10 UMOL IN 0.1 ML SALINE ONCE, Promoter: NONE USED","100%, 96%, 4%, not significant"
same,"tumour outcome (control, treated, inhibition, significance)","Carcinogen: 4-(METHYLNITROSAMINO)-1-(3-PYRIDYL)-1-BUTANONE, 64091-91-4, Dose [Inhibitor]: 0, 1 UMOL 1/D FOR 4 D ADMINISTERED PRIOR TO CARCINOGEN TREATMENT (STUDY DURATION: 116 D), Route [Inhibitor]: GAVAGE, Strain/Sex: STRAIN A, Target Tissue: Type of Lesion: LUNG: ADENOMA, Dose [Carcinogen]: 10 UMOL ONCE, Promoter: NONE USED","100%, 100%, 0%, not significant"
